Source: patent publication US6737383B1, “Herbicidal oxadiazolidines” (priority 1999, dated 2004)

Tests used:
[1] = test system: pigweed; assay: Test B pre/postemergence pigweed; assay type: in vivo, Amaranthus retroflexus; settings: for Redroot pigweed plant response rating: scale of 0 to 10 where 0 is no effect and 10 is complete control
Method in brief: (§1)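 Response is a visual 0-to-10 score relative to untreated plants, where 0 means no effect and 10 means complete control, taken twelve to sixteen days after application. Treatments went onto soil at planting and onto foliage of 1- to 4-leaf plants, using a surfactant-containing non-phytotoxic solvent.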

[2] = test system: wild oat; assay: Test E wild oat; assay type: in vivo, Avena fatua; settings: Preemergence
[3] = test system: giant foxtail; assay: Test B pre/postemergence giant foxtail; assay type: in vivo, Setaria faberii; settings: for Giant foxtail plant response rating: scale of 0 to 10 where 0 is no effect and 10 is complete control
Method in brief: as §1

[4] = test system: green foxtail; assay: Test E green foxtail; assay type: in vivo, Setaria viridis; settings: Preemergence
[5] = test system: winter barley; assay: Test E winter barley; assay type: in vivo, Hordeum vulgare; settings: Preemergence
[6] = test system: morningglory; assay: Test B pre/postemergence morningglory; assay type: in vivo, Ipomoea hederacea; settings: for Morningglory plant response rating: scale of 0 to 10 where 0 is no effect and 10 is complete control
Method in brief: as §1

[7] = test system: Italian ryegrass; assay: Test E Italian ryegrass; assay type: in vivo, Lolium multiflorum; settings: Preemergence
[8] = test system: winter wheat; assay: Test E winter wheat; assay type: in vivo, Triticum aestivum; settings: Preemergence
[9] = test system: blackgrass; assay: Test E blackgrass; assay type: in vivo, Alopecurus myosuroides; settings: Preemergence
[10] = test system: winter wheat; assay: Test E winter wheat; assay type: in vivo, Triticum aestivum; settings: Postemergence, 0 to 100 scale, 0 is no effect, 100 is complete control
Method in brief: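 Visually scored herbicidal effect relative to untreated plants, taken ~21 to 28 days post-application; compound in solvent with surfactant; postemergence sprays at the 1- to 4-leaf stage.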

[11] = Postemergence, Rate 125 g/ha, scale 0 to 10, 0 is no effect, 10 is complete control
[12] = Preemergence, Rate 62 g/ha, scale 0 to 10 (0 no effect, 10 complete control)
[13] = Rate 500 g/ha, Postemergence, scale 0 to 10, 0 no effect, 10 complete control
[14] = Rate 125 g/ha, 0 to 100 scale (0 no effect, 100 complete control)
[15] = Rate 500 g/ha, 0 to 100 scale (0 no effect, 100 complete control)

## CC(C)N(C(=O)n1oc(=O)n(C2CCC2)c1=O)c1ccc(F)cc1 [Compound 350]
[1]; [11]
  Plant response rating, Redroot pigweed: 0
[1]; [12]
  Plant response rating, Redroot pigweed: 4
[1]; Preemergence, Rate 125 g/ha
  Redroot pigweed plant response rating (0 to 10 scale): 10
[1]; Preemergence, Rate 250 g/ha
  Redroot pigweed plant response rating: 10
[1]; Preemergence, Rate 500 g/ha
  Redroot pigweed plant response rating: 10
[1]; Rate 62 g/ha, Postemergence
  Redroot pigweed plant response rating: 0
[1]; [13]
  Plant response rating, Redroot pigweed: 3
[2]; [14]
  Plant response rating, Wild oat: 40
[2]; Rate 250 g/ha, 0 to 100 scale
  Plant response rating, Wild oat: 60
[2]; [15]
  Plant response rating, Wild oat: 65
[3]; [11]
  Plant response rating, Giant foxtail: 8
[3]; [12]
  Plant response rating, Giant foxtail: 10
[3]; Preemergence, Rate 125 g/ha
  Giant foxtail plant response rating (0 to 10 scale): 10
[3]; Preemergence, Rate 250 g/ha
  Giant foxtail plant response rating: 10
[3]; Preemergence, Rate 500 g/ha
  Giant foxtail plant response rating: 10
[3]; Rate 62 g/ha, Postemergence
  Giant foxtail plant response rating: 5
[3]; [13]
  Plant response rating, Giant foxtail: 9
[4]; [14]
  Plant response rating, Green foxtail: 65
[4]; Rate 250 g/ha, 0 to 100 scale
  Plant response rating, Green foxtail: 55
[4]; [15]
  Plant response rating, Green foxtail: 85
[5]; [14]
  Plant response rating, Barley (winter): 5
[5]; Rate 250 g/ha, 0 to 100 scale, 0 no effect, 100 complete control
  Plant response rating, Barley (winter): 10
[5]; [15]
  Plant response rating, Barley (winter): 25
[6]; [11]
  Plant response rating, Morningglory: 6
[6]; [12]
  Plant response rating, Morningglory: 0
[6]; Preemergence, Rate 125 g/ha
  Morningglory plant response rating (0 to 10 scale): 0
[6]; Preemergence, Rate 250 g/ha
  Morningglory plant response rating: 0
[6]; Preemergence, Rate 500 g/ha
  Morningglory plant response rating: 2
[6]; Rate 62 g/ha, Postemergence
  Morningglory plant response rating: 3
[6]; [13]
  Plant response rating, Morningglory: 9
[7]; [14]
  Plant response rating, I. Ryegrass: 60
[7]; Rate 250 g/ha, 0 to 100 scale
  Plant response rating, I. Ryegrass: 90
[7]; [15]
  Plant response rating, I. Ryegrass: 85
[8]; [14]
  Plant response rating, Wheat (winter): 40
[8]; Rate 250 g/ha, 0 to 100 scale
  Plant response rating, Wheat (winter): 40
[8]; [15]
  Plant response rating, Wheat (winter): 50
[9]; [14]
  Plant response rating, Blackgrass: 50
[9]; Rate 250 g/ha, 0 to 100 scale
  Plant response rating, Blackgrass: 30
[9]; [15]
  Plant response rating, Blackgrass: 60
[10]; Rate 125 g/ha
  Plant response rating, Wheat (winter): 50
[10]; Rate 250 g/ha
  Plant response rating, Wheat (winter): 30
[10]; Rate 500 g/ha
  Plant response rating, Wheat (winter): 40
